Measured values from patent publication US12285034B2, “Human and non-human animal use of microbial anaplerotic oil” (HELIAE DEVELOPMENT, LLC, priority 2017, dated 2025).
Where two headings read alike, the source gives them in different places.

Experiments:
[1] = tested on: Aurantiochytrium acetophilum HS399; assay type: cell-based; conditions: for OCFA / Total Fatty Acids / Total Lipids: harvest; for OCFA Productivity / Propionate deposition: 120 h
Experimental: Respective Erlenmeyer flasks (250 mL) are inoculated (1% v/v) in triplicates with a 24 h old culture of A. acetophilum HS399 and incubated in an orbital shaker at 180 rpm and 27° C.
Respective Erlenmeyer flasks contain 100 mL of a medium supplemented with (g/L): dextrose (100), ammonium acetate (4.6), NaCl (12.5), MgSO4 7H2O (2.5), KH2PO4 (0.5), KCl (0.5) and CaCl2 (0.1). This medium also contains trace element solution (5 ml/L) and vitamin solution (1 ml/L). The trace element solution contains (g/L): EDTA di-sodium salt (6), FeCl3 6H2O (0.29), […] (6.84), MnCl2 4H2O (0.86), ZnCl2 (0.06), CoCl2 6H2O (0.026), NiSO4 6H2O (0.052), CuSO4 5H2O (0.002), Na2MoO4H2O (0.005). The vitamin solution contains (mg/L): thiamine (100), biotin (0.5) and cyanocobalamin (0.5).
In this example, respective culture materials are autoclaved (e.g., 121° C., 15 min) and the media is filter sterilized before use. […] Daily samples are collected to analyze the cell dry weight, residual glucose, culture pH (see FIG. 15), and lipid and fatty acid composition of the cultures. Cell dry weights are analyzed by filtration (e.g., 0.2 μm filter media) using a vacuum and washed with a solution of ammonium bicarbonate. Residual glucose is analyzed using a colorimetric method based on glucose […] activity. Biomass for lipid analysis is centrifuged and washed using purified water. The washed biomass is freeze dried. Total lipids are analyzed using Folch method (AOAC 996.06) and the FAMES are analyzed by gas chromatography and flame ionization detection using nonadecanoic (C19:0) acid as an internal standard.

[2] = tested on: Aurantiochytrium acetophilum HS399; test: Single vs two-stage fermentation with propionic acid (Example 12); assay type: cell-based; conditions: propionic acid fed
Source text: Further, in this implementation, during the lipid phase, no additional nitrogen is fed, and the cell accumulated the lipids. In the single stage mode, half of the nitrogen (2.5 g/L NH3) can be batch fed, while the other half (2.5 g/L NH3) can be fed along with the glucose until the end of the fermentation. In this implementation, both treatments receive substantially the same nutrients; however, the single stage mode grows and accumulates lipids in a coordinated way throughout the fermentation. The single stage system can be characterized by an early lipid accumulation. […] Each of the four treatments can be cultured in duplicate (n=2) fermenters. […] As illustrated, propionic acid slows down the growth on both systems, but the two-stage system provides a better growth rate than the single stage system in the presence of propionate. […] This implementation illustrates that the traditional two stage approach to lipid accumulation may be preferable to produce OCFAs.

[3] = tested on: Aurantiochytrium acetophilum HS399
Experimental: Respective Erlenmeyer flasks (250 mL) can be inoculated (1% v/v) in triplicates with a 24 hour (h) old culture of A. acetophilum HS399 and incubated in an orbital shaker at 180 rpm and 27° C.
In this implementation, the respective Erlenmeyer flasks contain 100 mL of a medium supplemented with (g/L): dextrose (50), ammonium acetate (2.3), NaCl (12.5), MgSO4 7H2O (2.5), KH2PO4 (0.5), KCl (0.5) and CaCl2 (0.1). This medium also contains trace element solution (5 ml/L) and vitamin solution (1 ml/L). The trace element solution contains (g/L): EDTA di-sodium salt (6), FeCl3 6H2O (0.29), […] (6.84), MnCl2 4H2O (0.86), ZnCl2 (0.06), CoCl2 6H2O (0.026), NiSO4 6H2O (0.052), CuSO4 5H2O (0.002), Na2MoO4H2O (0.005). The vitamin solution contains (mg/L): thiamine (100), biotin (0.5) and cyanocobalamin (0.5). All culture materials can be autoclaved (121° C., 15 min) and media can be filter sterilized before use. […] Daily samples can be collected to analyze the cell dry weight, residual glucose, culture pH, lipid and fatty acid composition of the cultures. Cell dry weights are analyzed by vacuum filtration (0.2 μm) and washed with a solution of ammonium bicarbonate. Residual glucose is analyzed using a colorimetric method based on glucose […] activity. Biomass for lipid analysis can be centrifuged and washed using purified water. The washed biomass can be freeze dried. Total lipids are analyzed using the Folch method (AOAC 996.06) and the FAMES are analyzed by gas chromatography using nonadecanoic (C19:0) acid as an internal standard.

[4] = tested on: Aurantiochytrium acetophilum HS399; test: Model of intracellular (cytosolic) propionate, Henderson-Hasselbalch (Example 4)
Source text: In one implementation, the change in pH may be calculated with the following equation derived from the Henderson and Hasselbalch equation: […]

[5] = propionate 0 + 1 + 1 + 1 g/L (Day 5)
[6] = propionate 0 + 2 + 2 + 2 g/L (Day 5)
[7] = propionate 0 + 3 g/L (Day 5), listed as propionate
[8] = propionate 3 g/L (Day 5), listed as propionate

## CCC(=O)O [Propionate, propionic acid]
[1]
  residual concentration giving some growth inhibition: 1 g/L
[1]; P3 vs P0+3
  increase of OCFAs productivity by feeding propionate merely during lipogenesis: approximately 20%
[1]; propionate 0 + 1 + 1 + 1 g/L
  OCFA: 29.2 ± 0.4 % TFA
  Total Fatty Acids: 67.2 ± 5.0 % DW
  Total Lipids: 79.7 ± 0.6 % DW
[1]; propionate 0 + 2 + 2 + 2 g/L
  OCFA: 53.5 ± 0.8 % TFA
  Total Fatty Acids: 63.5 ± 1.6 % DW
  Total Lipids: 76.0 ± 1.0 % DW
[1]; propionate 0 + 3 g/L
  Total Fatty Acids: 66.0 ± 2.2 % DW
  Total Lipids: 79.5 ± 0.5 % DW
[1]; propionate 0 + 3 g/L (P0+3)
  OCFA: 27.6 ± 0.1 % TFA
[1]; propionate 0 + 3 g/L (P0+3), listed as propionate
  OCFA: 27.4 % TFA
[1]; propionate 3 g/L (P3)
  OCFA: 25.5 ± 0.2 % TFA
[1]; propionate 3 g/L (P3), listed as propionate
  OCFA: 25.2 % TFA
[1]; propionate 3 g/L (day 0)
  Total Fatty Acids: 64.8 ± 1.2 % DW
  Total Lipids: 78.0 ± 0.0 % DW
[1]; [5]
  OCFA Productivity: 1.19 ± 0.03 g/L/day
  Propionate deposition: 59.6 ± 1.4%
[1]; [6]
  OCFA Productivity: 1.86 ± 0.04 g/L/day
  Propionate deposition: 46.7 ± 0.9%
[1]; propionate 0 + 3 g/L (Day 5)
  OCFA Productivity: 1.18 ± 0.02 g/L/day
  Propionate deposition: 59.3 ± 1.1%
[1]; [7]
  OCFA Productivity: 1.18 ± 0.02 g/L/day
  Propionate deposition: 59.3±1.1%
[1]; propionate 3 g/L (Day 5)
  OCFA Productivity: 1.04 ± 0.01 g/L/day
  Propionate deposition: 52.2 ± 0.7%
[1]; [8]
  OCFA Productivity: 1.18 ± 0.02 g/L/day
  Propionate deposition: 52.2±0.7%
[2]; single stage, 96 h
  Productivity: 20.7 g/L/day
[2]; single stage, batch time 96 h
  Biomass Yield: 82.5 g/L
[2]; two stage, 89 h
  Productivity: 34.1 g/L/day
[2]; two stage, batch time 89 h
  Biomass Yield: 125.8 g/L
[3]
  OCFA Productivity: 0.81 ± 0.06 g/L/day
  concentration strongly inhibitory to growth: 10000 µg/mL
  growth inhibitory concentration: 3 g/L
[3]; pH of 6
  substantially lethal residual (extracellular) concentration: ~15 g/L
[3]; propionate 10 g/L, 68 h
  OCFA: 63.1 ± 0.7 % TFA
  Total Fatty Acids: 42.8 ± 0.9 % DW
  Total Lipids: 55.3 ± 0.6 % DW
[3]; propionate 10 g/L, 68 h, listed as propionate
  OCFA: 63 % TFA
[3]; propionate printed 1100 g/L
  Propionate deposition: 6.9 ± 0.5%
[4]; from 1 g/L, pH 7 (growth inhibitory)
  intracellular propionate concentration: 1 g/L
[4]; from ~15 g/L residual, pH 6 (lethal)
  intracellular propionate concentration: 176 g/L
[4]; initial propionate 20 g/L, pH 6.4
  lethal threshold, Cytosolic Propionate: 97.7 g/L
[4]; pH 5 set point
  D1-D4 Average Internal Propionic Acid (Theoretical Values): 56.70 g/L
[4]; pH 6 set point
  D1-D4 Average Internal Propionic Acid (Theoretical Values): 4.18 g/L
[4]; pH 7 set point
  D1-D4 Average Internal Propionic Acid (Theoretical Values): 0.13 g/L
[4]; pH drift approach, pH 5.3, 2.3 g/L, listed as Propionic acid
  lethal threshold, Cytosolic Propionate: 107.5 ± 3.5 g/L
[4]; pH drift approach, pH 5.3, 2.3 g/L, listed as propionate
  lethal threshold, Cytosolic Propionate: 107.5 g/L
